Data taken from US20260083703A1, “INDOLINE DERIVATIVES AS SEROTONERGIC AGENTS USEFUL FOR THE TREATMENT OF DISORDERS RELATED THERETO” (MINDSET PHARMA INC., priority 2022, published 2026).
Where “and” joins values, the source holds several entries; their conditions need not be identical. Equal values may be shown once.

Columns and labels:
[1] = Liver microsomes stability, rat
[2] = test system: Male, C57BL/6J mice; test: Mouse head twitch; assay type: in vivo
Description: The effect of different doses of representative compounds of Formula I are evaluated on head-twitch response (HTR) and other behavioural responses as behavior-based models of psychedelic activity.
Male, C57BL/6J mice (body weight range 20-30 g) were dosed with the appropriate dose of test article, and following a 1-minute pre-treatment time, placed in individual observation chambers. Animals were visually assessed for the incidence head twitches continuously over a 1 hr period. Head twitches were defined as a rapid jerk of the head which was not elicited by an external tactile stimulus (Come and Pickering, Psychopharmacologia, 1967, 11(1): 65-78). Each head twitch was individually counted by a trained observer, and the data expressed as the mean±SEM of 6-10 mice per group. Mice were used in a single experiment only.

[3] = biological target: T1, human 5-HT2A (h5-HT2A) receptor (Homo sapiens, UniProt P28223); test: FLIPR assay, human 5-HT2A, agonist mode; assay type: cell-based
T1 construct: expressed in transfected cells; grown under G418 and hygromycin B selection
Description: I. Assessment of the Effect of Exemplary Compounds of Formula I Targeting on Human 5-HT2A (h5-HT2A) Receptor Under Agonist Mode:
I.c. Experimental Methods and Procedures: • 1. Cells were cultured in cell culture medium (DMEM containing 10% FBS, 1×penicillin-streptomycin 300 μg/ml G418 and 100 μg/ml hygromycin B) at 37° C., 5% (v/v) CO2. • 2. One day before the assays, the cells were detached using TrypLE™ Express and cells were counted using cell counter. Only cells with >85% viability were used for the assay. • 3. 20000 cells/well were seeded in 30 μl/well culture medium to a 384-well cell plate and cells were incubated overnight at 37° C., 5% (v/v) CO2. • 4. On the assay day, 2×dye solution was prepared following the manual of the FLIPR® Calcium 6 Assay Kit: i. The dye was diluted with assay buffer (20 mM HEPES in 1×HBSS, PH7.4); ii. Probenecid was added to the final concentration of 5 mM; iii. Vortex vigorously for 1-2 minutes. • 5. Medium was removed from cell plate by flicking the cell plate on towel papers. • 6. 10 μl of assay buffer and 10 μl of 2×dye solution was added to each well of the cell plate. • 7. The cell plate was placed on plate shaker, the plate was agitated at 600 rpm for 2 minutes. The plate was incubated at 37° C. for 2 hours followed by additional 15-minute incubation at 25° C. • 8. 3×compound in assay buffer was prepared: a. Reference compounds were diluted to required concentration with DMSO. The compounds were added to a 384-well compound plate; b. Serial dilutions were performed; c. 10 mM test compounds were added to the compound plate, and 3-fold serial dilutions were performed. d. Transfer 60 nl/well of compounds from source plate to a 384-well compound plate (Corning, 3657) by using an Echo; e. Add 20 μl/well assay buffer to the compound plate; f. Mix the plate on plate shaker for 2 mins; • 9. The cell plate, compound plate and tips were put into FLIPR, 10 μl of 3× compound was transferred to the cell plate per well with FLIPR.
• i. The normalized fluorescence reading (RFU) was calculated as shown below, where Fmax and Fmin stand for maximum and minimum of calcium signal during defined time window: RFU=Fmax−Fmin. • ii. Calculate the percentage activation using following equation:
[formula] • Iii. Calculate EC50 by fitting % activation against log of compound concentrations with Hill equation using XLfit.

[4] = Liver microsomes stability, human; settings: human
[5] = Liver microsomes stability, mouse

T1 sequence (P28223 whole entry): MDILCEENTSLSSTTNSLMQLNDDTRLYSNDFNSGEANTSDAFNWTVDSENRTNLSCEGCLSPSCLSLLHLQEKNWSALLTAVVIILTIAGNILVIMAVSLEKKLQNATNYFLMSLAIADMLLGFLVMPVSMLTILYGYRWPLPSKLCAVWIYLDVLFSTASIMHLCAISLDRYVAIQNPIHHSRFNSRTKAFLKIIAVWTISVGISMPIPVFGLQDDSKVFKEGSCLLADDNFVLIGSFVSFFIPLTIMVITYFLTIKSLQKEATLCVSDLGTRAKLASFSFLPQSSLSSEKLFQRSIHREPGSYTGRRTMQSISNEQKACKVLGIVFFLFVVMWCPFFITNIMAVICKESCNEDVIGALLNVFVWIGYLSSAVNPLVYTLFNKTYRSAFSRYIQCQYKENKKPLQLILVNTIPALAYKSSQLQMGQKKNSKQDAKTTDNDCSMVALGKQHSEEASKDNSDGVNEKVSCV

## COc1ccc2c(c1)C(C[C@H]1CCCN1C)CN2 (stereo partly drawn) [(R)-I-54]
[1]
  Predicted hepatic CL: 2.951 L/h/kg
[1]; With NADPH, 0 min
  Remaining Percentage: 100.00%
[1]; With NADPH, 30 min
  Remaining Percentage: 2.28%
[1]; With NADPH, 60 min
  Remaining Percentage: 0.48%
[1]; Without NADPH, 0 min
  Remaining Percentage: 100.00%
[1]; Without NADPH, 30 min
  Remaining Percentage: 103.93%
[1]; Without NADPH, 60 min
  Remaining Percentage: 97.75%
[1]; rat liver microsomes
  CLint scaled at 2 μM: 27.1 L/h/kg
  half-life at 2 μM: 5.5 min
  microsomal CLint at 2 μM: 252 µL/min/mg
[2]; 1 mg/kg SC
  head twitch response (mean head twitches over 1 hr): 0.7
[2]; 3 mg/kg SC
  head twitch response (mean head twitches over 1 hr): 0.2
[2]; 10 mg/kg SC
  head twitch response (mean head twitches over 1 hr): 1.2
[2]; 30 mg/kg SC
  head twitch response (mean head twitches over 1 hr): 1.8
[2]; 60 mg/kg SC
  head twitch response (mean head twitches over 1 hr): 0.8
[2]; SC
  dose of peak head twitch response: 30 mg/kg
[2]; SC, psilocybin 0.1-10, 5-MeO DMT 1-30, (R)-I-54 1-60 mg/kg
  head twitch response over the dose range tested: only a modest head twitch response
[3]
  EC50: 0.017 µM and 0.025 µM
[3]; 10 μM
  5-HT2A (FLIPR) RFU@10 μM: 993 RFU and 990 RFU
[4]
  Predicted hepatic CL: 0.8112 L/h/kg
[4]; With NADPH, 0 min
  Remaining Percentage: 100.00%
[4]; With NADPH, 30 min
  Remaining Percentage: 66.49%
[4]; With NADPH, 60 min
  Remaining Percentage: 39.38%
[4]; Without NADPH, 0 min
  Remaining Percentage: 100.00%
[4]; Without NADPH, 30 min
  Remaining Percentage: 116.22%
[4]; Without NADPH, 60 min
  Remaining Percentage: 93.51%
[4]; pooled human liver microsomes
  CLint scaled at 2 μM: 2.34 L/h/kg
  half-life at 2 μM: 44.6 min
  microsomal CLint at 2 μM: 31.1 µL/min/mg
[5]
  Predicted hepatic CL: 4.223 L/h/kg
[5]; With NADPH, 0 min
  Remaining Percentage: 100.00%
[5]; With NADPH, 30 min
  Remaining Percentage: 34.74%
[5]; With NADPH, 60 min
  Remaining Percentage: 10.91%
[5]; Without NADPH, 0 min
  Remaining Percentage: 100.00%
[5]; Without NADPH, 30 min
  Remaining Percentage: 98.80%
[5]; Without NADPH, 60 min
  Remaining Percentage: 91.62%
[5]; male, microsomes
  CLint scaled at 2 μM: 19.4 L/h/kg
  half-life at 2 μM: 18.8 min
  microsomal CLint at 2 μM: 73.8 µL/min/mg
